In paper PMC6105673 (Nature Communications, 2018):
*: point of attachment. Biotin = O=C1N[C@H]2[C@H](CS[C@H]2CCCCC(=O)*)N1

B1: HIF-2α WT peptide (523-542), unmodified (peptide)
peptide: Biotin-ELDLETLAPYIPMDGEDFQL-NH2
SMILES: CC[C@H](C)[C@H](NC(=O)[C@H](Cc1ccc(O)cc1)NC(=O)[C@@H]1CCCN1C(=O)[C@H](C)NC(=O)[C@H](CC(C)C)NC(=O)[C@@H](NC(=O)[C@H](CCC(=O)O)NC(=O)[C@H](CC(C)C)NC(=O)[C@H](CC(=O)O)NC(=O)[C@H](CC(C)C)NC(=O)[C@H](CCC(=O)O)NC(=O)CCCC[C@@H]1SC[C@@H]2NC(=O)N[C@@H]21)[C@@H](C)O)C(=O)N1CCC[C@H]1C(=O)N[C@@H](CCSC)C(=O)N[C@@H](CC(=O)O)C(=O)NCC(=O)N[C@@H](CCC(=O)O)C(=O)N[C@@H](CC(=O)O)C(=O)N[C@@H](Cc1ccccc1)C(=O)N[C@@H](CCC(N)=O)C(=O)N[C@@H](CC(C)C)C(N)=O
notes: Used for the pull-down of HIS6-PHD2; source: synthetic peptide (Genscript)
B2: HIF-2α M535I peptide (523-542), unmodified (peptide, UniProt Q99814 523-542, looked up)
peptide: Biotin-ELDLETLAPYIPIDGEDFQL-NH2
SMILES: CC[C@H](C)[C@H](NC(=O)[C@@H]1CCCN1C(=O)[C@@H](NC(=O)[C@H](Cc1ccc(O)cc1)NC(=O)[C@@H]1CCCN1C(=O)[C@H](C)NC(=O)[C@H](CC(C)C)NC(=O)[C@@H](NC(=O)[C@H](CCC(=O)O)NC(=O)[C@H](CC(C)C)NC(=O)[C@H](CC(=O)O)NC(=O)[C@H](CC(C)C)NC(=O)[C@H](CCC(=O)O)NC(=O)CCCC[C@@H]1SC[C@@H]2NC(=O)N[C@@H]21)[C@@H](C)O)[C@@H](C)CC)C(=O)N[C@@H](CC(=O)O)C(=O)NCC(=O)N[C@@H](CCC(=O)O)C(=O)N[C@@H](CC(=O)O)C(=O)N[C@@H](Cc1ccccc1)C(=O)N[C@@H](CCC(N)=O)C(=O)N[C@@H](CC(C)C)C(N)=O
notes: Used for the pull-down of HIS6-PHD2; also called M535I class 2 mutant; source: synthetic peptide (Genscript)

What was measured:
HIS6-PHD2 (181–426) [1] = assay: In vitro hydroxylation assay (HIS6-PHD2 treatment, then IVTT pVHL pull-down); type: biochemical; details: unmodified biotinylated peptides, 15 μg/mL HIS6-PHD2 (181–426), 1 h room temperature, then IVTT HA-VHL30 under stringent buffer
Description: Considering that prolyl hydroxylation is indispensable for HIF-2α binding to pVHL, we next examined the notion that the A530V mutation negatively influences hydroxylation of HIF-2α via PHD2, which would attenuate HIF-2α A530V binding affinity for pVHL. We conducted an in vitro hydroxylation assay utilizing unmodified peptides (amino acids 523–542) incubated with purified HIS6-PHD2 (catalytic core, amino acids 181–426).
Fig. 5 A subset of class 1 mutations specifically disrupts PHD2-mediated hydroxylation. a, b Biotinylated HIF-2α peptides (residues 523–542) were immobilized on streptavidin- agarose beads and incubated with HIS6-PHD2 for 1 h at room temperature prior to incubation with in vitro transcribed and translated (IVTT) pVHL. Streptavidin beads were pulled down (PD) and levels of HA-tagged pVHL were visualized via immmunoblotting (IB). c HEK293a cells were co-transfected with FLAG-VHL and HA-HIF-2α constructs. FLAG was immunoprecipitated (IP) and levels of HA-tagged HIF-2α were visualized via immunoblotting (IB). * denotes uncharacterized band
The in vitro pVHL-HIF-2α hydroxylation assay was performed according to a previously published protocol. 5 μg of biotinylated HIF-2α peptide was immobilized on streptavidin-agarose beads. Subsequently, peptides were incubated with 15 μg/mL HIS6-PHD2 (181–426) in 500 μL of 40 mM HEPES pH 7.4, 80 mM KCl, 5 mM a-ketoglutarate, 2 mM ascorbic acid, 100 μM FeCl2 tetrahydrate solution at room temperature for 1 h. FeCl2 was stored under anoxic conditions to prevent oxidation. Following hydroxylation, beads were washed 5x with EBC buffer and peptides were incubated with IVTT HA-VHL30 under the stringent buffer conditions described above.

HIS6-PHD2 (181–426) [2] = assay: Steady-state pull-down of purified HIS6-PHD2 with biotinylated HIF-2α peptides; type: binding; details: for affinity for PHD2 in steady-state pull-down (immunoblot, in words): peptides (523–542), purified HIS6-PHD2 (181–426), with 1 mM MnCl2 and 1 mM NOG, 2 h at 4 °C
Text: To first test this hypothesis, we performed steady-state pull-down experiments with HIF-2α peptides (523–542) and purified HIS6-PHD2 (181–426). To stabilize the interaction between enzyme and substrate, it was necessary to include MnCl2 and N-oxalylglycine (NOG) in the binding buffer. Mn^2+ and NOG substitute for Fe^2+ and αKG, respectively, which stabilizes the HIF-2α-PHD2 interaction while preventing enzymatic turnover. A similar strategy was employed during co-crystallization of HIF-1α peptide with PHD2[43]. We observed that […] tested HIF-2α mutations result in decreased affinity for PHD2 (Supplementary Figure 6a). […] Next, we co-transfected HEK293a cells with 3xFLAG-HIF-2α ODD and HA-PHD2 constructs. […] The increased binding of the M535I mutant to PHD2 was not observed in this experiment. One important caveat is that the HIF-2α ODD constructs contain both the P405 and P531 sites. Thus, the residual PHD2 binding observed among HIF-2α mutants may partially be driven by the P405 site, which may mask differential PHD2 binding among the HIF-2α mutant ODD constructs.
5 μg of biotinylated HIF-2α peptide (WT or mutant) was immobilized on streptavidin agarose beads and incubated with a […] solution of purified HIS6-PHD2 (181–426) in 50 mM Tris-HCl pH 7.5, 0.005% (v/v) Tween-20 buffer supplemented with or without 1 mM MnCl2 and 1 mM NOG, for 2 h at 4 °C. Beads were washed 2x with the same buffer. Biotinylated peptide was pulled down via streptavidin agarose beads and protein was eluted by boiling beads in sample buffer. Protein levels of HIS6-PHD2 were determined by western blotting. Uncropped western blots are provided in Supplementary Figure 8.
Supplementary Figure 6. HIF-2α mutations disrupt PHD2 binding. (A) Biotinylated HIF-2α peptides (523-542, except where noted) were immobilized on streptavidin- agarose beads and incubated with purified HIS6-PHD2 (181-426) in the presence or absence of 1 mM MnCl2 and 1 mM N-oxalylglycine (NOG).
Streptavidin beads were pulled down (PD) and levels of HIS6-tagged PHD2 were visualized via immmunoblotting (IB). […]

HIS6-PHD2(181-426) = assay: Biolayer interferometry of HIS6-PHD2 binding to biotinylated HIF-2α peptides (523-542); details: BLI, 1 mM MnCl2 and 1 mM N-oxalylglycine, from mM to μM, accurate constants not possible (PHD2 aggregation)
Text: 2. The authors concluded that some of class 1 mutation affects PHD2-mediated hydroxylation of HIF-2α (Fig. 4). I think it is better to examine the interaction between HIF -2α mutants and PHD2 utilizing IP-Western and BLI. Also, negative controls (non-hydroxylated HIF-2α peptide without PHD2 treatment) should be included in Fig. 4A and 4B.
RE S PO N S E : Done. We performed binding assays with recombinant PHD2 to test the reviewer’s […]
major technical hurdle with performing binding assay with enzymes is overcoming the inherently transient nature of the interaction.
In an effort to stabilize the interaction between HIF-2α peptide and PHD2, we incorporated a technique that was used during co-crystallization of HIF-1α peptide with PHD2 (Chowdhury et al., 2009). As PHD2 normally forms a stable complex with co-factors Fe2+ and α-ketoglutarate (αK G), we formed a complex of PHD2 with Mn2+ and N-oxalylglycine (NOG), which mimic iron and αK G, […]
During BLI experiments, the addition of […]
Figure X. Biolayer interferometry studies of HIF-2α peptide binding to PHD2. […] Biotinylated peptides were coupled to streptavidin- coated biosensors and monitored for binding to PHD2 at the indicated concentrations in the presence or absence of 1 mM MnCl2 and 1 mM N-oxalylglycine. The data were analyzed based on a 1:1 binding model using the BLItz Pro software with the fitted curves shown as gray lines. […]

[3] = biological target: T1, HIS6-PHD2 (catalytic core, amino acids 181–426) (UniProt Q9GZT9 181-426); assay: pull-down; biotinylated unmodified peptide on streptavidin agarose, purified HIS6-PHD2 (181–426), 50 mM Tris-HCl pH 7.5, 0.005% Tween-20 with 1 mM MnCl2 and 1 mM NOG, 2 h at 4 °C; anti-HIS blot; details: both partners purified
T1 construct: prolyl hydroxylase domain containing enzyme 2 (PHD2, encoded by EGLN1), catalytic core, residues 181-426; plasmid pET-46 HIS6-PHD2; also called purified HIS6-PHD2 (181–426); source: E. coli BL21(DE3), purified (nickel sepharose, SEC)
T1 sequence (Q9GZT9 181-426): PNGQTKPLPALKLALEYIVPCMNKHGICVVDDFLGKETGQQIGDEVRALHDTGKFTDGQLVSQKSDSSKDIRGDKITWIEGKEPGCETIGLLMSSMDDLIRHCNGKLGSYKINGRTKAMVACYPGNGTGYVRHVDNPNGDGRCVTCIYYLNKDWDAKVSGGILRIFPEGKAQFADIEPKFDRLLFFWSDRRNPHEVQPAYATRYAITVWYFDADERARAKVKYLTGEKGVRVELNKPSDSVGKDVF

Molecule	binding to pVHL following HIS6-PHD2 treatment (immunoblot, in words) (HIS6-PHD2 (181–426) [1])	affinity for PHD2 in steady-state pull-down (immunoblot, in words) (HIS6-PHD2 (181–426) [2])	pull-down of recombinant PHD2 (in words) (HIS6-PHD2 (181–426) [2]; earlier experiments, without Mn2+/NOG stabilization)	decrease of Kd for PHD2 on addition of Mn2+ and NOG (HIS6-PHD2(181-426))	binding result [3]
Bio-HIF-2α(M535I): unmodified HIF-2α peptide (523–542) with M535I mutation (Biotin-ELDLETLAPYIPIDGEDFQL-NH2; SMILES CC[C@H](C)[C@H](NC(=O)[C@@H]1CCCN1C(=O)[C@@H](NC(=O)[C@H](Cc1ccc(O)cc1)NC(=O)[C@@H]1CCCN1C(=O)[C@H](C)NC(=O)[C@H](CC(C)C)NC(=O)[C@@H](NC(=O)[C@H](CCC(=O)O)NC(=O)[C@H](CC(C)C)NC(=O)[C@H](CC(=O)O)NC(=O)[C@H](CC(C)C)NC(=O)[C@H](CCC(=O)O)NC(=O)CCCC[C@@H]1SC[C@@H]2NC(=O)N[C@@H]21)[C@@H](C)O)[C@@H](C)CC)C(=O)N[C@@H](CC(=O)O)C(=O)NCC(=O)N[C@@H](CCC(=O)O)C(=O)N[C@@H](CC(=O)O)C(=O)N[C@@H](Cc1ccccc1)C(=O)N[C@@H](CCC(N)=O)C(=O)N[C@@H](CC(C)C)C(N)=O)	still retained affinity for pVHL	not as deleterious			
ELDLETLA[Hyp/P]YIPMDGEDFQL [Bio-HIF-2α(523-542;WT)]	bound robustly	observed binding	failed to pull -down recombinant PHD2 protein	roughly 1000 fold	
B1					binds
B2					binds
